Test results as given in patent EP2041131B1, “AZAINDOLE DERIVATIVES WITH A COMBINATION OF PARTIAL NICOTINIC ACETYLCHOLINE RECEPTOR AGONISM AND DOPAMINE REUPTAKE INHIBITION” (Abbott Healthcare Products B.V., priority 2006, dated 2008).
pIC50: −log10 of the molar value. Like-named read-outs stand apart in the source and are kept apart here.

Columns and labels:
rat striatal slices = test: In vitro [^3H]-Dopamine release; format: cell-based
dopamine uptake sites = target: T1, dopamine uptake sites (Rattus norvegicus, UniProt P23977); test: In vitro [^3H]-Dopamine uptake in striatal synaptosomes; format: biochemical; settings: for IC50: rat striatal synaptosomes, 10^-9 to 10^-5 M, read-out: Functional activity re-uptake [^3H]-Dopamine pIC50 (converted)
T1 construct: the striatum was rapidly removed and a crude synaptosomal fraction (P2) was prepared; from tissue; host or cells: rat striatum, crude synaptosomal fraction (P2)
Method: Subsequently, [^3H]-dopamine (2x10^-7 M final concentration) was added and incubation was continued for 10 min. [^3H]-dopamine uptake was stopped by filtration and the synaptosomes were washed four times with phosphate buffered saline. The amount of [^3H]-dopamine in the synaptosomes was determined by Betaplate liquid scintillation counting. […] Inhibition of DA uptake was performed in duplicate.

[1] = K+ (10 mM) evoked release, rat striatal slices, compounds added at 10^-8 M and 10^-6 M, table does not say which concentration

T1 sequence (P23977 whole entry): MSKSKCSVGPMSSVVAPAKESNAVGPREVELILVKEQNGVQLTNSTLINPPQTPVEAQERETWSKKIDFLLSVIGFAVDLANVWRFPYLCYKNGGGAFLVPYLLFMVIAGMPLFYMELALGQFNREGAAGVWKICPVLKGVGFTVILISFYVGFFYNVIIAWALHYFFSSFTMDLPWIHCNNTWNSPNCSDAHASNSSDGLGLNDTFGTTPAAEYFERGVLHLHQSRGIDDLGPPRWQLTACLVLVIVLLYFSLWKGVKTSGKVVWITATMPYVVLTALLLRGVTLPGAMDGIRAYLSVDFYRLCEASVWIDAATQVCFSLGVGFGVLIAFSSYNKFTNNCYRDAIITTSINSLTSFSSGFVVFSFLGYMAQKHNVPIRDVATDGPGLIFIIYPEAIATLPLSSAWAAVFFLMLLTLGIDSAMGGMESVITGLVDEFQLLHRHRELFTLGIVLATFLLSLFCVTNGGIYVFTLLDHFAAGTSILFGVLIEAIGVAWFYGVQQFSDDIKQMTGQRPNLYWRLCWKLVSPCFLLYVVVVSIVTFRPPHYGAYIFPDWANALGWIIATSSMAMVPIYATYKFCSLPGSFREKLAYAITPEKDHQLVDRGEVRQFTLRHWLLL

| SMILES | Functional activity release [^3H]-Dopamine % of control (rat striatal slices) | Functional activity release [^3H]-Dopamine % of control (rat striatal slices; [1]) | IC50 (dopamine uptake sites) | pIC50 (dopamine uptake sites) |
| --- | --- | --- | --- | --- |
| c1cnc2cc(C[C@@H]3CCCN3)[nH]c2c1 [Compound 81B, (S)-2-pyrrolidin-2-ylmethyl-1H-pyrrolo[3,2-b]pyridine] | 120 % of control | – | – | – |
| Fc1ccc2cc(C[C@@H]3CCCN3)[nH]c2n1 [Compound 47B, (S)-6-fluoro-2-pyrrolidin-2-ylmethyl-1H-pyrrolo[2,3-b]pyridine] | – | 128 % of control | 3.98 µM | – |
| CN1CCC[C@@H]1Cc1c[nH]c2ncccc12 (stereo in doubt) [Compound 98, reference compound] | – | 132 % of control | > 10 µM | – |
| Brc1cnc2[nH]c(C[C@H]3CCCN3)cc2c1 [Compound 52A, (R)-5-bromo-2-pyrrolidin-2-ylmethyl-1H-pyrrolo[2,3-b]pyridine] | 135 % of control | – | – | – |
| Clc1ccc2cc(C3CCCNC3)[nH]c2n1 (centres unmarked) [Compound 32, 6-chloro-2-piperidin-3-yl-1H-pyrrolo[2,3-b]pyridine] | – | 173 % of control | – | – |
| Fc1ccc2cc(C[C@H]3CCCN3)[nH]c2n1 [Compound 47A, (R)-6-fluoro-2-pyrrolidin-2-ylmethyl-1H-pyrrolo[2,3-b]pyridine] | – | 137 % of control | – | – |
| Clc1ccc2cc(C[C@@H]3CCCN3)[nH]c2n1 [Compound 45B, (S)-6-chloro-2-pyrrolidin-2-ylmethyl-1H-pyrrolo[2,3-b]pyridine] | – | 153 % of control | 2.51 µM | – |
| c1cnc2[nH]cc(C3CCCNC3)c2c1 (centres unmarked) [Compound 6, 3-piperidin-3-yl-1 H-pyrrolo[2,3-b]pyridine] | – | 139 % of control | – | 5.40 |
| Clc1ccc2cc(C[C@H]3CCCN3)[nH]c2n1 [Compound 45A, (R)-6-chloro-2-pyrrolidin-2-ylmethyl-1H-pyrrolo[2,3-b]pyridine] | – | 115 % of control | – | – |
| COc1ccc2cc(C[C@H]3CCCN3)[nH]c2n1 [Compound 49, (R)-6-methoxy-2-pyrrolidin-2-ylmethyl-1H-pyrrolo[2,3-b]pyridine] | 160 % of control | – | – | – |
| c1cnc2[nH]cc(C[C@H]3CCCN3)c2c1 (stereo in doubt) [Compound 96, (R)-3-pyrrolidin-2-ylmethyl-1H-pyrrolo-[2,3-b]pyridine, reference compound] | 124 % of control | – | – | – |
| O=c1cccc2n1C[C@@H]1CNC[C@H]2C1 [cytisine, reference compound] | – | 136 % of control | – | < 5.00 |
| c1cnc2[nH]c([C@H]3CCCNC3)cc2c1 [Compound 26A, (S)-2-piperidin-3-yl-1H-pyrrolo[2,3-b]pyridine] | – | 139 % of control | 2.51 µM | – |
| c1cnc2[nH]c([C@@H]3CCCNC3)cc2c1 [Compound 26B, (R)-2-piperidin-3-yl-1H-pyrrolo[2,3-b]pyridine] | – | 121 % of control | – | 6.20 |
| Brc1ccc2cc(C[C@H]3CCCN3)[nH]c2n1 [Compound 46A, (R)-6-bromo-2-pyrrolidin-2-ylmethyl-1H-pyrrolo[2,3-b]pyridine] | – | 92 % of control | – | – |
| c1cnc2[nH]c(C[C@@H]3CCCN3)cc2c1 [Compound 39B, (S)-2-pyrrolidin-2-ylmethyl-1H-pyrrolo[2,3-b]pyridine] | – | 133 % of control | – | – |

| SMILES | Functional activity release [^3H]-Dopamine % of control (rat striatal slices) | Functional activity release [^3H]-Dopamine % of control (rat striatal slices; [1]) | IC50 (dopamine uptake sites) | pIC50 (dopamine uptake sites) |
| --- | --- | --- | --- | --- |
| c1cnc2[nH]c(C3CCNC3)cc2c1 (centres unmarked) [Compound 78, 2-pyrrolidin-3-yl-1H-pyrrolo[2,3-b]pyridine] | – | 154 % of control | 2 µM | – |
| c1cnc2c(C[C@H]3CCCN3)c[nH]c2c1 [Compound 88, (R)-3-pyrrolidin-2-ylmethyl-1H-pyrrolo[3,2-b]pyridine] | – | 110 % of control | 7.94 µM | – |
| c1cnc2cc(C[C@H]3CCCN3)[nH]c2c1 [Compound 81A, (R)-2-pyrrolidin-2-ylmethyl-1H-pyrrolo[3,2-b]pyridine] | 153 % of control | – | – | – |
| CN1CCC[C@@H]1Cc1cc2cccnc2[nH]1 [Compound 41A, (R)-2-(1-Methyl-pyrrolidin-2-ylmethyl)-1H-pyrrolo[2,3-b]pyridine] | – | 100 % of control | – | – |
| Clc1ccc2cc([C@@H]3CCCNC3)[nH]c2n1 [Compound 32B, (R)-6-chloro-2-piperidin-3-yl-1H-pyrrolo[2,3-b]pyridine] | – | 170 % of control | – | 6.40 |
| CN1CCCC1c1cccnc1 (centres unmarked) [nicotine, reference compound] | – | 180 % of control | – | < 5.00 |
| Brc1ccc2cc(C[C@@H]3CCCN3)[nH]c2n1 [Compound 46B, (S)-6-bromo-2-pyrrolidin-2-ylmethyl-1H-pyrrolo[2,3-b]pyridine] | – | 123 % of control | – | – |
| c1cnc2[nH]c([C@@H]3CCNC3)cc2c1 [Compound 78B, (R)-2-pyrrolidin-3-yl-1H-pyrrolo[2,3-b]pyridine] | – | 187 % of control | 1.58 µM | – |
| c1cnc2[nH]c([C@H]3CCNC3)cc2c1 [Compound 78A, (S)-2-pyrrolidin-3-yl-1H-pyrrolo[2,3-b]pyridine] | – | 109 % of control | 3.98 µM | – |
| c1cnc2cc(C3CCNC3)[nH]c2c1 (centres unmarked) [Compound 79, 2-pyrrolidin-3-yl-1H-pyrrolo[3,2-b]pyridine] | – | 119 % of control | 6.31 µM | – |
| c1cnc2[nH]c(C[C@H]3CCCN3)cc2c1 [Compound 39A, (R)-2-pyrrolidin-2-ylmethyl-1H-pyrrolo[2,3-b]pyridine] | 151 % of control | – | – | – |
| Clc1ccc2c(C3CCCNC3)c[nH]c2n1 (centres unmarked) [Compound 13, 6-chloro-3-piperidin-3-yl-1 H-pyrrolo[2,3-b]pyridine] | – | 174 % of control | 1.58 µM | – |
| COc1ccc2[nH]c(C[C@H]3CCCN3)cc2n1 [Compound 85, (R)-5-methoxy-2-pyrrolidin-2-ylmethyl-1H-pyrrolo[3,2-b]pyridine] | 131 % of control | – | – | – |
| CC(NC(C)(C)C)C(=O)c1cccc(Cl)c1 (centres unmarked) [bupropion, reference compound] | – | 124 % of control | 3.98 µM | – |
| CN1CCC[C@H]1Cc1c[nH]c2ncccc12 (stereo in doubt) [Compound 99, reference compound] | – | 112 % of control | – | – |
